Test results published in patent publication US8822444B2, “Hepatitis C virus inhibitors” (Bristol-Myers Squibb Company, priority 2009, dated 2014).

Tested on: HCV 1b genotype
Test: HCV Replicon assay
Type: cell-based
Details: HCV 1b genotype replicon; read-out: 1b EC50 Range
Procedure: An HCV Replicon assay was utilized in the present disclosure, and was prepared, conducted and validated as described in commonly owned PCT/US2006/022197 and in O'Boyle et. al. Antimicrob Agents Chemother. 2005 April; 49(4):1346-53. Assay methods incorporating luciferase reporters have also been used as described (Apath.com).
HCV-neo replicon cells and replicon cells containing mutations in the NS5A region were used to test the currently described family of compounds. The compounds were determined to have more than 10-fold less inhibitory activity on cells containing mutations than wild-type cells. Thus, the compounds of the present disclosure can be effective in inhibiting the function of the HCV NS5A protein and are understood to be as effective in combinations as previously described in application PCT/US2006/022197 and commonly owned WO/04014852. Further, the compounds of the present disclosure can be effective against the HCV 1b genotype. It should also be understood that the compounds of the present disclosure can inhibit multiple genotypes of HCV. […] In one embodiment, compounds of the present disclosure are inhibitory versus 1a, 1b, 2a, 2b, 3a, 4a, and 5a genotypes.

## COC(=O)N[C@@H](C)C(=O)N1CCC[C@H]1c1nc(C2=CCC(c3ccc(-c4c[nH]c([C@@H]5CCCN5C(=O)[C@H](C)NC(=O)OC)n4)cc3)CC2)c[nH]1 (stereo partly drawn) [QC-10, methyl ((1S)-2-((2S)-2-(4-(4-(4-(2-((2S)-1-(N-(methoxycarbonyl)-1-alanyl)-2-pyrrolidinyl)-1H-imidazol-4-yl)-3-cyclohexen-1-yl)phenyl)-1H-imidazol-2-yl)-1-pyrrolidinyl)-1-methyl-2-oxoethyl)carbamate]
  EC50: 4.57 to 99 nM
